Laboratory results as given in US8268821B2, “Methods and compositions” (priority 2003, dated 2012).

Tested on: cancer-related neuropathic pain
Test: Open label dose escalation study of flupirtine, case studies JE and RM
Conditions: RM; ketamine for six days prior to the flupirtine trial

SMILES: CNC1(c2ccccc2Cl)CCCCC1=O (stereo not shown) [ketamine]
- pain control: failed to control pain
